{"source": "paper PMC10331583", "about": "“Control of fibrosis with enhanced safety via asymmetric inhibition of prolyl‐tRNA synthetase 1” (EMBO Molecular Medicine, 2023)", "key": {"[1]": {"test_system": "C57BL/6 mice", "assay": "Bleomycin‐induced lung fibrosis, therapeutic model 2 (compounds from 2 weeks after bleomycin)", "format": "in vivo", "conditions": "model 2, drug administration from day 14", "method": "To examine therapeutic efficacy of DWN12088, all experiments were conducted following the international guidelines on the ethical use of experimental animals and approved by the Institutional Animal Care and Use Committee of Daewoong Pharmaceutical (IACUC‐21‐014). C57BL/6 mice (7–8‐week‐old, male, obtained from Orient Bio) were anesthetized with Zoletil and injected intratracheally with 100 μl bleomycin (2 units/kg) (Merck, B8416) to induce lung fibrosis. A group of disease‐free mice (“untreated”) were injected with PBS instead of bleomycin. After a week, mice treated with bleomycin were randomized to (i) vehicle (saline), (ii) HF 0.05 mg/kg, (iii) HF 0.1 mg/kg, and (iv) DWN12088 10 mg/kg groups (n = 5 for each group) according to their body weight. The drugs were orally administered once daily for 2 weeks, and then the outcome was analyzed. For the experiments testing the effect of the compounds 2 weeks after bleomycin challenge, the experiment was approved by IACUC of Daewoong Pharmaceutical (IACUC‐22‐009). […]\nThe collagen contents of lung tissues were measured using Sircol™ soluble collagen assay (Biocolor Ltd., S1000) following the manufacturer's instructions. […] Tissue extracts were incubated with Sirius red dye, and the absorbance was determined at 540 nm using a spectrophotometer. […]"}, "[2]": {"target": "T1, His‐PARS1 (Homo sapiens, UniProt P07814)", "T1 construct": "His‐PARS1 (1001–1,512 aa); made in house; host or cells: Escherichia coli", "T1 sequence (P07814 1001-1512 limits assumed)": "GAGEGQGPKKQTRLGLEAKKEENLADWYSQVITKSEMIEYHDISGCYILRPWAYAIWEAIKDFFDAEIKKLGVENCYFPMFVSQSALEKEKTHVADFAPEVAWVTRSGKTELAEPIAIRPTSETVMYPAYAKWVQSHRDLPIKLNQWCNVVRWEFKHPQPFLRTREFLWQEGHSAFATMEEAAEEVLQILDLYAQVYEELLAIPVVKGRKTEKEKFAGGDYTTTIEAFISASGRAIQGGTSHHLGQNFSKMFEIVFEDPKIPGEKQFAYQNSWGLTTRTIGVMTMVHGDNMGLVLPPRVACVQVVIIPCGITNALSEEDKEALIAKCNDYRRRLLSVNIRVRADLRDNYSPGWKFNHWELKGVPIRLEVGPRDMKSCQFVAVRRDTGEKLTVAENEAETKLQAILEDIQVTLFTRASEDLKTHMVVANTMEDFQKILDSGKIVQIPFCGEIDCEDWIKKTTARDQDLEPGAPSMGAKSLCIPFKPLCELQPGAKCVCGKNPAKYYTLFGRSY", "assay": "Surface plasmon resonance (SPR)", "format": "binding"}, "[3]": {"target": "T2, PARS1 F1097A/E1123A/R1152L (FA/EA/RL) mutant (Homo sapiens, UniProt P07814, E1123A/F1097A/R1152L)", "T2 construct": "His‐PARS1 (1001–1,512 aa); made in house; host or cells: Escherichia coli", "T2 sequence (P07814 1001-1512 F1097A/E1123A/R1152L)": "T1 sequence (P07814 1001-1512 limits assumed) with F97A, E123A, R152L", "assay": "Microscale thermophoresis (MST), PARS1 mutant", "format": "binding", "conditions": "for Fraction bound: single replicates"}}, "note": "Residue numbers refer to the chain shown, from its start. “And” between values parts separate entries of the source, which are not always exact repeats. Identical values can stand only once. Like-named read-outs stand apart in the source and are kept apart here."}
{"smiles": "O[C@H]1CCCN[C@@H]1CCCn1cnc2c(Cl)c(Cl)ccc21", "note": "[DWN12088]", "values": [{"measurement": "fibrotic properties", "setting": "[1]", "result": "less apparent"}, {"measurement": "Kd", "setting": "[2]; KD, + ATP (1 mM)", "result": 31.1, "unit": "µM"}, {"measurement": "Kd", "setting": "[2]; KD, - ATP", "result": "> 300", "unit": "µM"}, {"measurement": "Kd", "setting": "[2]; Kd, SPR, in the presence of ATP", "result": 31, "unit": "µM"}, {"measurement": "Fraction bound, average", "setting": "[3]; Dose 30.5176 nM", "result": -0.2196}, {"measurement": "Fraction bound", "setting": "[3]; Dose 30.5176 nM", "result": "-0.0531 and -0.3613 and -0.2444"}, {"measurement": "Fraction bound, average", "setting": "[3]; Dose 61.0352 nM", "result": -0.1437}, {"measurement": "Fraction bound", "setting": "[3]; Dose 61.0352 nM", "result": "-0.0707 and -0.1506 and -0.2099"}, {"measurement": "Fraction bound, average", "setting": "[3]; Dose 122.07 nM", "result": 0.0563}, {"measurement": "Fraction bound", "setting": "[3]; Dose 122.07 nM", "result": "0.1029 and 0.0530 and 0.0131"}, {"measurement": "Fraction bound, average", "setting": "[3]; Dose 244.141 nM", "result": 0.2244}, {"measurement": "Fraction bound", "setting": "[3]; Dose 244.141 nM", "result": "0.3322 and 0.1837 and 0.1572"}, {"measurement": "Fraction bound, average", "setting": "[3]; Dose 488.281 nM", "result": -0.0768}, {"measurement": "Fraction bound", "setting": "[3]; Dose 488.281 nM", "result": "-0.1204 and -0.1742 and 0.0641"}, {"measurement": "Fraction bound, average", "setting": "[3]; Dose 976.562 nM", "result": -0.0355}, {"measurement": "Fraction bound", "setting": "[3]; Dose 976.562 nM", "result": "-0.2804 and 0.0014 and 0.1724"}, {"measurement": "Fraction bound, average", "setting": "[3]; Dose 1953.12 nM", "result": 0.1140}, {"measurement": "Fraction bound", "setting": "[3]; Dose 1953.12 nM", "result": "0.1616 and 0.0279 and 0.1524"}, {"measurement": "Fraction bound, average", "setting": "[3]; Dose 3906.25 nM", "result": 0.1368}, {"measurement": "Fraction bound", "setting": "[3]; Dose 3906.25 nM", "result": "8.74e-5 and 0.2618 and 0.1487"}, {"measurement": "Fraction bound, average", "setting": "[3]; Dose 7812.5 nM", "result": -0.0582}, {"measurement": "Fraction bound", "setting": "[3]; Dose 7812.5 nM", "result": "-0.2477 and -0.0355 and 0.1087"}, {"measurement": "Fraction bound, average", "setting": "[3]; Dose 15625 nM", "result": 0.2874}, {"measurement": "Fraction bound", "setting": "[3]; Dose 15625 nM", "result": "0.1991 and 0.1856 and 0.4774"}, {"measurement": "Fraction bound, average", "setting": "[3]; Dose 31250 nM", "result": 0.2894}, {"measurement": "Fraction bound", "setting": "[3]; Dose 31250 nM", "result": "0.2431 and 0.4002 and 0.2248"}, {"measurement": "Fraction bound, average", "setting": "[3]; Dose 62500 nM", "result": 0.2591}, {"measurement": "Fraction bound", "setting": "[3]; Dose 62500 nM", "result": "0.5108 and 0.3402 and -0.0738"}, {"measurement": "Fraction bound, average", "setting": "[3]; Dose 125000 nM", "result": 0.4857}, {"measurement": "Fraction bound", "setting": "[3]; Dose 125000 nM", "result": "0.4645 and 0.6139 and 0.3786"}, {"measurement": "Fraction bound, average", "setting": "[3]; Dose 250000 nM", "result": 0.6790}, {"measurement": "Fraction bound", "setting": "[3]; Dose 250000 nM", "result": "0.6147 and 0.6365 and 0.7858"}, {"measurement": "Fraction bound, average", "setting": "[3]; Dose 500000 nM", "result": 0.8538}, {"measurement": "Fraction bound", "setting": "[3]; Dose 500000 nM", "result": "0.9212 and 0.7677 and 0.8725"}, {"measurement": "Fraction bound, average", "setting": "[3]; Dose 1000000 nM", "result": 0.8907}, {"measurement": "Fraction bound", "setting": "[3]; Dose 1000000 nM", "result": "0.9649 and 0.9924 and 0.7150"}, {"measurement": "Kd", "setting": "[3]; Kd (Fit Results), His-PARS1 FA/EA/RL, doses of the sheet in nM", "result": 114000, "unit": "nM"}, {"measurement": "Kd", "setting": "[3]; Kd, MT (FA/EA/RL), 5 mM ATP, mean ± SD, unit inferred", "result": "114000 ± 57400", "unit": "nM"}]}
{"smiles": "O=C(CC1NCCCC1O)Cn1cnc2cc(Br)c(Cl)cc2c1=O", "note": "(stereo not shown) [HF, Halofuginone, reference compound]", "values": [{"measurement": "fibrotic properties", "setting": "[1]", "result": "less apparent"}, {"measurement": "Kd", "setting": "[2]; + ATP (1 mM), read-out: KD", "result": 0.178, "unit": "µM"}, {"measurement": "Kd", "setting": "[2]; - ATP, read-out: KD", "result": 47.9, "unit": "µM"}, {"measurement": "Fraction bound, average", "setting": "[3]; Dose 3.0518 nM", "result": -0.2588}, {"measurement": "Fraction bound", "setting": "[3]; Dose 3.0518 nM", "result": "-0.0691 and -0.4485"}, {"measurement": "Fraction bound, average", "setting": "[3]; Dose 6.1035 nM", "result": 0.0816}, {"measurement": "Fraction bound", "setting": "[3]; Dose 6.1035 nM", "result": "-0.1353 and 0.0688 and 0.3113"}, {"measurement": "Fraction bound, average", "setting": "[3]; Dose 12.207 nM", "result": -0.0324}, {"measurement": "Fraction bound", "setting": "[3]; Dose 12.207 nM", "result": "-0.1134 and -0.0549 and 0.0712"}, {"measurement": "Fraction bound, average", "setting": "[3]; Dose 24.4141 nM", "result": 0.1754}, {"measurement": "Fraction bound", "setting": "[3]; Dose 24.4141 nM", "result": "0.2387 and 0.0706 and 0.2171"}, {"measurement": "Fraction bound, average", "setting": "[3]; Dose 48.8281 nM", "result": 0.0946}, {"measurement": "Fraction bound", "setting": "[3]; Dose 48.8281 nM", "result": "0.0297 and 0.0849 and 0.1693"}, {"measurement": "Fraction bound, average", "setting": "[3]; Dose 97.6563 nM", "result": -0.0450}, {"measurement": "Fraction bound", "setting": "[3]; Dose 97.6563 nM", "result": "-0.0271 and 0.1069 and -0.2149"}, {"measurement": "Fraction bound, average", "setting": "[3]; Dose 195.312 nM", "result": 0.0503}, {"measurement": "Fraction bound", "setting": "[3]; Dose 195.312 nM", "result": "0.0657 and 0.2487 and -0.1634"}, {"measurement": "Fraction bound, average", "setting": "[3]; Dose 390.625 nM", "result": -0.0697}, {"measurement": "Fraction bound", "setting": "[3]; Dose 390.625 nM", "result": "0.2249 and -0.2797 and -0.1544"}, {"measurement": "Fraction bound, average", "setting": "[3]; Dose 781.25 nM", "result": 0.0626}, {"measurement": "Fraction bound", "setting": "[3]; Dose 781.25 nM", "result": "0.0905 and 0.1699 and -0.0724"}, {"measurement": "Fraction bound, average", "setting": "[3]; Dose 1562.5 nM", "result": 0.4132}, {"measurement": "Fraction bound", "setting": "[3]; Dose 1562.5 nM", "result": "0.3970 and 0.3491 and 0.4935"}, {"measurement": "Fraction bound, average", "setting": "[3]; Dose 3125 nM", "result": 0.2921}, {"measurement": "Fraction bound", "setting": "[3]; Dose 3125 nM", "result": "0.2701 and 0.2589 and 0.3472"}, {"measurement": "Fraction bound, average", "setting": "[3]; Dose 6250 nM", "result": 0.4932}, {"measurement": "Fraction bound", "setting": "[3]; Dose 6250 nM", "result": "0.1312 and 0.6482 and 0.7002"}, {"measurement": "Fraction bound, average", "setting": "[3]; Dose 12500 nM", "result": 0.6254}, {"measurement": "Fraction bound", "setting": "[3]; Dose 12500 nM", "result": "0.5193 and 0.6344 and 0.7226"}, {"measurement": "Fraction bound, average", "setting": "[3]; Dose 25000 nM", "result": 0.6785}, {"measurement": "Fraction bound", "setting": "[3]; Dose 25000 nM", "result": "0.6923 and 0.6116 and 0.7317"}, {"measurement": "Fraction bound, average", "setting": "[3]; Dose 50000 nM", "result": 0.8304}, {"measurement": "Fraction bound", "setting": "[3]; Dose 50000 nM", "result": "1.1885 and 0.7220 and 0.5806"}, {"measurement": "Fraction bound, average", "setting": "[3]; Dose 100000 nM", "result": 1.0687}, {"measurement": "Fraction bound", "setting": "[3]; Dose 100000 nM", "result": "0.9757 and 1.0430 and 1.1875"}]}
